{
  "source": "paper PMC5218480",
  "about": "(PLoS ONE, 2017)",
  "test_system": "MV-4-11 cells",
  "assay": "Gene expression microarray analysis (Affymetrix PrimeView) and GSEA",
  "assay_type": "cell-based, human",
  "design": "RFU PODN (11730768_x_at) / Fold change /veh PODN (11730768_x_at) / RFU LINC00158 (11744669_a_at) / Fold change /veh LINC00158 (11744669_a_at) / RFU DUSP10 (11751237_a_at) / Fold change /veh DUSP10 (11751237_a_at) / RFU ID3 (11757404_x_at) / Fold change /veh ID3 (11757404_x_at) / RFU PLEKHG5 (11737974_s_at) / Fold change /veh PLEKHG5 (11737974_s_at) / RFU LRRC4B (11730491_at) / Fold change /veh LRRC4B (11730491_at) / RFU GIMAP4 (11747438_a_at) / Fold change /veh GIMAP4 (11747438_a_at) / RFU KRT8 (11758183_x_at) / Fold change /veh KRT8 (11758183_x_at) / RFU CNN1 (11734310_a_at) / Fold change /veh CNN1 (11734310_a_at) / RFU VPS37D (11726825_at) / Fold change /veh VPS37D (11726825_at) / RFU C10orf10 (11716522_x_at) / Fold change /veh C10orf10 (11716522_x_at) / RFU KIR2DL2 /// KIR2DL4 /// KIR2DL5A /// KIR2DL5B /// KIR2DS1 /// KIR2DS2 /// KIR2DS3 /// KIR2DS4 /// KIR3DL3 /// KIR3DL3 /// KIR3DS1 (11738374_at) / Fold change /veh KIR2DL2 /// KIR2DL4 /// KIR2DL5A /// KIR2DL5B /// KIR2DS1 /// KIR2DS2 /// KIR2DS3 /// KIR2DS4 /// KIR3DL3 /// KIR3DL3 /// KIR3DS1 (11738374_at) / RFU C1QL1 (11718748_at) / Fold change /veh C1QL1 (11718748_at) / RFU TMPRSS4 (11747572_a_at) / Fold change /veh TMPRSS4 (11747572_a_at) / RFU HAMP (11756126_x_at) / Fold change /veh HAMP (11756126_x_at) / RFU RNFT2 (11725882_a_at) / Fold change /veh RNFT2 (11725882_a_at) / RFU NR4A2 (11747474_a_at) / Fold change /veh NR4A2 (11747474_a_at) / RFU ABCC12 (11746883_a_at) / Fold change /veh ABCC12 (11746883_a_at) / RFU TMEM136 (11760407_x_at) / Fold change /veh TMEM136 (11760407_x_at) / RFU CLDN22 /// WWC2 (11732394_at) / Fold change /veh CLDN22 /// WWC2 (11732394_at) / RFU HLA-DPB1 (11760878_x_at) / Fold change /veh HLA-DPB1 (11760878_x_at) / RFU SPINT1 (11716480_a_at) / Fold change /veh SPINT1 (11716480_a_at) / RFU GAP43 (11754022_s_at) / Fold change /veh GAP43 (11754022_s_at) / RFU A4GNT (11735810_at) / Fold change /veh A4GNT (11735810_at) / RFU PRB3 (11715151_x_at) / Fold change /veh PRB3 (11715151_x_at) / RFU TUBB4B (11761932_at) / Fold change /veh TUBB4B (11761932_at) / RFU CAPN14 (11732068_a_at) / Fold change /veh CAPN14 (11732068_a_at) / RFU TMCC2 (11721928_a_at) / Fold change /veh TMCC2 (11721928_a_at) / RFU IRGQ (11745062_a_at) / Fold change /veh IRGQ (11745062_a_at) / RFU FAM174B (11720279_a_at) / Fold change /veh FAM174B (11720279_a_at) / RFU TMPRSS4 (11748680_a_at) / Fold change /veh TMPRSS4 (11748680_a_at) / RFU FAM212B (11763350_a_at) / Fold change /veh FAM212B (11763350_a_at) / RFU PLEKHG5 (11743358_a_at) / Fold change /veh PLEKHG5 (11743358_a_at) / RFU ZSCAN30 (11745921_a_at) / Fold change /veh ZSCAN30 (11745921_a_at) / RFU CMKLR1 (11741424_a_at) / Fold change /veh CMKLR1 (11741424_a_at) / RFU LOC101060620 /// MAPK8IP1 (11723275_at) / Fold change /veh LOC101060620 /// MAPK8IP1 (11723275_at) / RFU SPTSSB (11747773_x_at) / Fold change /veh SPTSSB (11747773_x_at) / RFU PRSS12 (11739890_at) / Fold change /veh PRSS12 (11739890_at) / RFU BIN1 (11741810_x_at) / Fold change /veh BIN1 (11741810_x_at) / RFU WNT11 (11732464_a_at) / Fold change /veh WNT11 (11732464_a_at) / RFU C10orf10 (11716521_a_at) / Fold change /veh C10orf10 (11716521_a_at) / RFU C5orf56 (11738089_at) / Fold change /veh C5orf56 (11738089_at) / RFU CYB561 (11721691_x_at) / Fold change /veh CYB561 (11721691_x_at) / RFU ANKRD19P (11752326_a_at) / Fold change /veh ANKRD19P (11752326_a_at) / RFU OR2T12 /// OR2T33 /// OR2T8 (11738714_s_at) / Fold change /veh OR2T12 /// OR2T33 /// OR2T8 (11738714_s_at) / RFU VCAN (11748164_a_at) / Fold change /veh VCAN (11748164_a_at) / RFU JSRP1 (11732532_at) / Fold change /veh JSRP1 (11732532_at) / RFU KRTAP10-11 (11738290_x_at) / Fold change /veh KRTAP10-11 (11738290_x_at) / RFU MYO3A (11730013_a_at) / Fold change /veh MYO3A (11730013_a_at) / RFU EBF3 (11725865_a_at) / Fold change /veh EBF3 (11725865_a_at) / RFU CAMK2N1 (11719241_x_at) / Fold change /veh CAMK2N1 (11719241_x_at) / RFU C5orf56 (11738088_a_at) / Fold change /veh C5orf56 (11738088_a_at) / RFU OLFML3 (11715873_a_at) / Fold change /veh OLFML3 (11715873_a_at) / RFU LOC100653217 /// NTM (11731650_a_at) / Fold change /veh LOC100653217 /// NTM (11731650_a_at) / RFU MAPK11 (11762145_a_at) / Fold change /veh MAPK11 (11762145_a_at) / RFU FIZ1 (11724087_x_at) / Fold change /veh FIZ1 (11724087_x_at) / RFU OASL (11726364_x_at) / Fold change /veh OASL (11726364_x_at) / RFU SOX15 (11748057_x_at) / Fold change /veh SOX15 (11748057_x_at) / RFU CD79A (11719716_a_at) / Fold change /veh CD79A (11719716_a_at) / RFU HIST1H1D (11736915_at) / Fold change /veh HIST1H1D (11736915_at) / RFU CASKIN2 (11723855_a_at) / Fold change /veh CASKIN2 (11723855_a_at) / RFU LOC730098 (11760151_x_at) / Fold change /veh LOC730098 (11760151_x_at) / RFU OR4N2 (11742367_at) / Fold change /veh OR4N2 (11742367_at) / RFU PRRT2 (11749266_a_at) / Fold change /veh PRRT2 (11749266_a_at) / RFU SNX32 (11753110_a_at) / Fold change /veh SNX32 (11753110_a_at) / RFU CDHR5 (11726645_a_at) / Fold change /veh CDHR5 (11726645_a_at) / RFU RCAN1 (11760418_a_at) / Fold change /veh RCAN1 (11760418_a_at) / RFU FAM167A (11723789_a_at) / Fold change /veh FAM167A (11723789_a_at) / RFU FAM26E (11764081_at) / Fold change /veh FAM26E (11764081_at) / RFU ISYNA1 (11749810_s_at) / Fold change /veh ISYNA1 (11749810_s_at) / RFU ACY1 (11761880_at) / Fold change /veh ACY1 (11761880_at) / RFU 11764098_at / Fold change /veh 11764098_at / RFU SAMD14 (11745864_x_at) / Fold change /veh SAMD14 (11745864_x_at) / RFU NPB (11741838_a_at) / Fold change /veh NPB (11741838_a_at) / RFU TMPRSS6 (11731388_a_at) / Fold change /veh TMPRSS6 (11731388_a_at) / RFU KRTAP10-2 (11738614_at) / Fold change /veh KRTAP10-2 (11738614_at) / RFU ARHGAP8 /// PRR5-ARHGAP8 (11727945_x_at) / Fold change /veh ARHGAP8 /// PRR5-ARHGAP8 (11727945_x_at) / RFU KRTAP5-7 /// NADSYN1 (11734609_at) / Fold change /veh KRTAP5-7 /// NADSYN1 (11734609_at) / RFU RASL12 (11751679_a_at) / Fold change /veh RASL12 (11751679_a_at) / RFU CDKN2B (11736163_a_at) / Fold change /veh CDKN2B (11736163_a_at) / RFU PRF1 (11729649_at) / Fold change /veh PRF1 (11729649_at) / RFU, ZNF638 /// ZNF638-IT1 / Fold change vs veh, ZNF638 /// ZNF638-IT1 / RFU, PANK3 / Fold change vs veh, PANK3 / RFU, SH3YL1 / Fold change vs veh, SH3YL1 / RFU, ZEB2 / Fold change vs veh, ZEB2 / RFU, NRIP1 / Fold change vs veh, NRIP1 / RFU, PTTG1IP / Fold change vs veh, PTTG1IP / RFU, CAPN2 / Fold change vs veh, CAPN2 / RFU, MED14 / Fold change vs veh, MED14 / RFU, SNORA58 / Fold change vs veh, SNORA58 / RFU, C1orf63 / Fold change vs veh, C1orf63 / RFU, LRRFIP1 / Fold change vs veh, LRRFIP1 / RFU, NDUFAF7 / Fold change vs veh, NDUFAF7 / RFU, SLC12A2 / Fold change vs veh, SLC12A2 / RFU, IBTK / Fold change vs veh, IBTK / RFU, ESF1 / Fold change vs veh, ESF1 / Fold change vs veh, TMEM50B / RFU, TAOK1 / Fold change vs veh, TAOK1 / RFU, ACBD3 / Fold change vs veh, ACBD3 / RFU, TMA16 / Fold change vs veh, TMA16 / RFU, RWDD3 / Fold change vs veh, RWDD3 / RFU, BCAT1 / Fold change vs veh, BCAT1 / RFU, EDEM3 / Fold change vs veh, EDEM3 / RFU, TMEM33 / Fold change vs veh, TMEM33 / RFU, WDR75 / Fold change vs veh, WDR75 / RFU, AHCTF1 / Fold change vs veh, AHCTF1 / RFU, TFRC / Fold change vs veh, TFRC / RFU, ZDHHC17 / Fold change vs veh, ZDHHC17 / RFU, NOM1 / Fold change vs veh, NOM1 / RFU, ARL8B / Fold change vs veh, ARL8B / RFU, ZBTB11 / Fold change vs veh, ZBTB11 / RFU, TAMM41 / Fold change vs veh, TAMM41 / RFU, KIAA1704 /// LOC100996395 / Fold change vs veh, KIAA1704 /// LOC100996395 / RFU, ING1 / Fold change vs veh, ING1 / RFU, TRMT61B / Fold change vs veh, TRMT61B / RFU, FUBP3 / Fold change vs veh, FUBP3 / RFU, TP53 / Fold change vs veh, TP53 / RFU, TNKS2 / Fold change vs veh, TNKS2 / RFU, ZFP14 / Fold change vs veh, ZFP14 / RFU, ACTR2 / Fold change vs veh, ACTR2 / RFU, PPP3R1 / Fold change vs veh, PPP3R1 / RFU, PIK3R1 / Fold change vs veh, PIK3R1 / RFU, HNRNPA1 / Fold change vs veh, HNRNPA1 / RFU, RNF170 / Fold change vs veh, RNF170 / RFU, ZNF28 / Fold change vs veh, ZNF28 / RFU, RNGTT / Fold change vs veh, RNGTT / RFU, OGT / Fold change vs veh, OGT / RFU, BRD1 / Fold change vs veh, BRD1 / RFU, MARS / Fold change vs veh, MARS / RFU, ZNF655 / Fold change vs veh, ZNF655 / RFU, FAHD1 / Fold change vs veh, FAHD1 / RFU, BDP1 / Fold change vs veh, BDP1 / RFU, LRRCC1 / Fold change vs veh, LRRCC1 / RFU, ARID1A / Fold change vs veh, ARID1A / RFU, ZNF146 / Fold change vs veh, ZNF146 / RFU, ZNF330 / Fold change vs veh, ZNF330 / RFU, GPN3 / Fold change vs veh, GPN3 / RFU, C9orf123 / Fold change vs veh, C9orf123 / RFU, N4BP2L2 / Fold change vs veh, N4BP2L2 / RFU, ARFIP1 / Fold change vs veh, ARFIP1 / RFU, FAM179B / Fold change vs veh, FAM179B / RFU, BCL10 / Fold change vs veh, BCL10 / RFU, UHRF1BP1L / Fold change vs veh, UHRF1BP1L / RFU, BET1 / Fold change vs veh, BET1 / RFU, CNOT2 / Fold change vs veh, CNOT2 / RFU, ZNF268 / Fold change vs veh, ZNF268 / Fold change vs veh, ZNF507 / RFU, DGCR2 / Fold change vs veh, DGCR2 / RFU, WDSUB1 / Fold change vs veh, WDSUB1 / Fold change vs veh, HSP90B1 /// MIR3652 / RFU, ADSS / Fold change vs veh, ADSS / RFU, GK / Fold change vs veh, GK / RFU, ZNF148 / Fold change vs veh, ZNF148 / RFU, TAF9 / Fold change vs veh, TAF9 / RFU, SLC1A5 / Fold change vs veh, SLC1A5 / RFU, SLMO2 / Fold change vs veh, SLMO2 / RFU, ABCC4 / Fold change vs veh, ABCC4 / RFU, LOC101060439 /// RAP1B / Fold change vs veh, LOC101060439 /// RAP1B / RFU, RFX7 / Fold change vs veh, RFX7 / RFU, GTPBP10 / Fold change vs veh, GTPBP10 / RFU, CNEP1R1 / Fold change vs veh, CNEP1R1 / RFU, BIVM-ERCC5 /// ERCC5 / Fold change vs veh, BIVM-ERCC5 /// ERCC5 / RFU, ILF3 / Fold change vs veh, ILF3 / RFU 11762660_at / Fold change /veh 11762660_at / RFU VCAN (11757783_s_at) / Fold change /veh VCAN (11757783_s_at) / RFU DDX43 (11728927_at) / Fold change /veh DDX43 (11728927_at) / RFU KRT8 (11758188_x_at) / Fold change /veh KRT8 (11758188_x_at) / RFU NKD1 (11759106_at) / Fold change /veh NKD1 (11759106_at) / RFU SRD5A1 (11742802_a_at) / Fold change /veh SRD5A1 (11742802_a_at) / RFU TPSAB1 /// TPSB2 (11721975_s_at) / Fold change /veh TPSAB1 /// TPSB2 (11721975_s_at) / RFU GSTM3 (11746129_a_at) / Fold change /veh GSTM3 (11746129_a_at) / RFU IL23R (11737362_x_at) / Fold change /veh IL23R (11737362_x_at) / RFU TMEM51 (11727254_a_at) / Fold change /veh TMEM51 (11727254_a_at) / RFU PIWIL2 (11732686_x_at) / Fold change /veh PIWIL2 (11732686_x_at) / RFU ORM1 (11744905_x_at) / Fold change /veh ORM1 (11744905_x_at) / RFU CCDC152 (11743942_at) / Fold change /veh CCDC152 (11743942_at) / RFU ECM1 (11717891_a_at) / Fold change /veh ECM1 (11717891_a_at) / RFU IL23R (11748794_a_at) / Fold change /veh IL23R (11748794_a_at) / RFU TNFAIP8L3 (11732012_x_at) / Fold change /veh TNFAIP8L3 (11732012_x_at) / RFU MBOAT4 (11741988_at) / Fold change /veh MBOAT4 (11741988_at) / RFU 11764193_at / Fold change /veh 11764193_at / RFU TMEM53 (11763286_at) / Fold change /veh TMEM53 (11763286_at) / RFU MAGEB2 (11727129_at) / Fold change /veh MAGEB2 (11727129_at) / RFU TMEM200A (11744735_a_at) / Fold change /veh TMEM200A (11744735_a_at) / RFU CCDC152 (11751479_a_at) / Fold change /veh CCDC152 (11751479_a_at) / RFU FAM211A (11726209_a_at) / Fold change /veh FAM211A (11726209_a_at) / RFU RGS16 (11746705_a_at) / Fold change /veh RGS16 (11746705_a_at) / RFU VCAN (11755009_s_at) / Fold change /veh VCAN (11755009_s_at) / RFU RHOB (11743442_s_at) / Fold change /veh RHOB (11743442_s_at) / RFU RGS16 (11720943_a_at) / Fold change /veh RGS16 (11720943_a_at) / RFU RGS16 (11720944_at) / Fold change /veh RGS16 (11720944_at) / RFU, VPS4B / Fold change vs veh, VPS4B / RFU, CREB1 / Fold change vs veh, CREB1 / RFU, DNAJC13 / Fold change vs veh, DNAJC13 / RFU, GNAQ / Fold change vs veh, GNAQ / RFU, CDK5R1 / Fold change vs veh, CDK5R1 / RFU, ZRANB3 / Fold change vs veh, ZRANB3 / RFU, CUL4A / Fold change vs veh, CUL4A / RFU, CCNY / Fold change vs veh, CCNY / RFU, UFL1 / Fold change vs veh, UFL1 / RFU, COG3 / Fold change vs veh, COG3 / RFU, DIAPH2 / Fold change vs veh, DIAPH2 / RFU, SKA2 / Fold change vs veh, SKA2 / RFU, AFF3 / Fold change vs veh, AFF3 / RFU, LMF1 / Fold change vs veh, LMF1 / RFU, IPO11 / Fold change vs veh, IPO11 / RFU, DFFB / Fold change vs veh, DFFB / RFU, FOXP1 / Fold change vs veh, FOXP1 / RFU, CARD8 / Fold change vs veh, CARD8 / RFU, STRN3 / Fold change vs veh, STRN3 / RFU, ADK / Fold change vs veh, ADK / RFU, RASSF2 / Fold change vs veh, RASSF2 / RFU, WIPF1 / Fold change vs veh, WIPF1 / RFU, LARP1B / Fold change vs veh, LARP1B / RFU, RASA1 / Fold change vs veh, RASA1 / RFU, RB1 / Fold change vs veh, RB1 / RFU, PPFIA1 / Fold change vs veh, PPFIA1 / RFU, MAT2A / Fold change vs veh, MAT2A / RFU, CCT5 / Fold change vs veh, CCT5 / RFU, WDR92 / Fold change vs veh, WDR92 / RFU, CUX1 / Fold change vs veh, CUX1 / RFU, TTC7A / Fold change vs veh, TTC7A / RFU, TMEM135 / Fold change vs veh, TMEM135 / RFU, DEPTOR / Fold change vs veh, DEPTOR / RFU, CPM / Fold change vs veh, CPM / RFU, DNAJB6 / Fold change vs veh, DNAJB6 / RFU, CACNA2D3 / Fold change vs veh, CACNA2D3 / RFU, DTX4 / Fold change vs veh, DTX4 / RFU, TFCP2 / Fold change vs veh, TFCP2 / RFU, GMCL1 /// GMCL1P1 / Fold change vs veh, GMCL1 /// GMCL1P1 / RFU, AEBP2 / Fold change vs veh, AEBP2 / RFU, SNHG1 /// SNORD22 /// SNORD25 /// SNORD26 /// SNORD27 /// SNORD28 /// SNORD29 /// SNORD31 / Fold change vs veh, SNHG1 /// SNORD22 /// SNORD25 /// SNORD26 /// SNORD27 /// SNORD28 /// SNORD29 /// SNORD31 / Fold change (Aza/veh), C12orf56 (ProbeSet 11735607_a_at) / Fold change (ACY-1035/veh), C12orf56 (ProbeSet 11735607_a_at) / Fold change (Aza/veh), FGFR1OP (ProbeSet 11751329_s_at) / Fold change (ACY-1035/veh), FGFR1OP (ProbeSet 11751329_s_at) / Fold change (Aza/veh), VPS36 (ProbeSet 11739960_a_at) / Fold change (ACY-1035/veh), VPS36 (ProbeSet 11739960_a_at) / RFU SYPL1 (11715823_x_at) / Fold change /veh SYPL1 (11715823_x_at) / RFU IGFBP7 (11715501_s_at) / Fold change /veh IGFBP7 (11715501_s_at) / RFU REEP3 (11722064_at) / Fold change /veh REEP3 (11722064_at) / RFU IGLL1 (11728026_x_at) / Fold change /veh IGLL1 (11728026_x_at): dose or concentration left out as unconfirmed",
  "details": "MV-4-11 cells, 48 hours",
  "data": [
    {"molecule": "Nc1ccc(-c2cccs2)cc1NC(=O)c1ccc2c(c1)cc(C1CC1)n2CCN1CCOCC1", "note": "[ACY-1035]", "values": [
      {"measurement": "Fold change /veh KRTAP10-2 (11738614_at)", "result": 0.99}
    ]}
  ]
}
